Values quoted from earlier work in US20260207586A1, “PHARMACEUTICAL COMPOSITION COMPRISING LURBINECTEDIN, PREPARATION METHOD THEREFOR, AND USE THEREOF” (BrightGene Bio-Medical Technology Co., Ltd., priority 2022, published 2026).

Solubility in water: limited
Storage time under refrigeration (5° C.): 1 month
Stability at room temperature (25° C.): rapidly degraded
Structure (SMILES): COc1ccc2[nH]c3c(c2c1)CCN[C@]31CS[C@@H]2c3c(OC(C)=O)c(C)c4c(c3[C@H](COC1=O)N1[C@@H]2[C@H]2c3c(cc(C)c(OC)c3O)C[C@@H]([C@@H]1O)N2C)OCO4 [Lurbinectedin]
